Tested on: HIV-1
Assay: Microtiter infectivity assay: protection of MT-4 cells from cytopathic effect of HIV-1 (MTT)
Assay type: cell-based, human immunodeficiency virus 1 (HIV-1) subtype B
Conditions: for IC50: Human immunodeficiency virus 1, MT4, inhibits 50% viral replication; for Survival (% protection): MT-4 cells infected with HIV-1; for SI = CC50/IC50: selectivity index, MT-4 cells, MTT assay
Description: The first study of antiviral activity of compound 1 and the control compound 2 was performed on example of its influence on replication of human immunodeficiency virus 1 (HIV-1) by microtiter infectivity assay in cell culture and by evaluation of concentration of compound 1 or 2, which inhibits virus replication by 50% (IC50) as well as by selectivity index (SI).
The cell line used in this study was also the MT-4 cell line as described above.
A microplate assay of infectivity in cell culture, based on consideration of a cytopathic effect of the virus was described in the literature, see reference 8. At least 4 different concentrations: 10×MNC, MNC^−1, MNC^−2, and MNC^−3 were used.
In each trial, the following controls were set: • (i) cell control—only cells in culture medium and not infected with the virus; and • (ii) viral control—one column to cells infected with the virus were added only medium (200 μl) without the test compound 1 or the control compound 2.
The activity of compound 1 or control compound 2 against the cytopathic effect of HIV-1 was expressed as percentage (%) protection (survival) of the cells defined by the following formula:
[formula] wherein: • ODVS=absorption of cells infected and treated with compound 1 or 2 • ODVC=absorption of the virus-infected cells (virus control without compound 1 or 2), and • ODCC=absorption of uninfected cells (cell control)
The inhibitory concentration 50% (IC50) was defined as the concentration of test compound 1 or control compound 2, expressed in mM, which inhibits 50% viral replication. IC50 was determined directly from the curve “dose (concentration)—response (anti-HIV effect)”. The IC50 was expressed as percentage (%) of: • (i) cell viability which was obtained by the MTT assay; or • (ii) percentage (%) inhibition of enzyme reverse transcriptase (RT) activity.
On the basic of the data about CC50 and IC50 for the test substance 1 or control substance 2, the selectivity index (SI) value was estimated.
The compounds 1 or 2 were dissolved in dimethyl sulfoxide (DMSO; Sigma-Aldrich, USA) to a concentration of 1 mol/l (1 M) and after diluted in cell growth medium RPMI 1640 with 2% heat inactivated fetal bovine serum (FBS; Sigma-Aldrich, USA). All further solutions of compounds 1 or 2 were prepared ex tempore.
MT-4 cell line was not infected with HIV-1 and was used as a classic model for reproduction of acute infection with HIV-1. The cells were cultivated in RPMI 1640 growth medium supplemented with 15% fetal bovine serum (FBS; Sigma-Aldrich, USA), 100 U/ml penicillin G sodium (Sigma-Aldrich, USA), and 100 μg/ml streptomycin sulphate (Sigma-Aldrich, USA).
HIV-1 culture fluid was chronically infected and producing HIV-1 subtype B cell line H9/HTLV III B. The culture fluid was centrifuged and collected as a virus stock. The latter, used in the experiments, was of predetermined infectivity of 2·10^6 infectious virions/ml according to the microtiter infectivity assay based on the cytopathic effect of HIV, through ingestion of MTT, containing protein 24 antigen (p24) and enzyme reverse transcriptase (RT).
After counting the cells, they were resuspended in growth medium at a concentration of 6-8·10^4 cells/100 μl. Followed screening of cell suspensions (100 μl/well of that above) into sterile 96-well plates pretreated with poly-L-lysine (PLL). Since the final volume of the culture medium in each well was 200 μl, additional 100 μl of 10% FBS (containing no cells) was added. At the end of rows and columns were not seeded cells, but only culture medium without FBS.
After 24 h, the supernatant was decanted and added in 50 μl HIV-1 in dilution 10^−1. One or two columns were not infected, acting as the control cells. The plate was placed in an incubator at 37° C. and 5% content of CO2, for 1 h. The virus was then removed and in one or two columns of infected cells were added 200 μl medium containing the appropriate concentration of the test substance 1 or the control substance 2. […]

[1] = MT-4 cells infected with HIV-1, MTT assay

Row | Compound | IC50 [1] [nM] | Survival (% protection) (concentration 0.000001 mM) [%] | Survival (% protection) (concentration 0.00001 mM) [%] | Survival (% protection) (concentration 0.0001 mM) [%] | Survival (% protection) (concentration 0.001 mM) [%] | Survival (% protection) (concentration 0.005 mM) [%] | Survival (% protection) (concentration 0.01 mM (MNC)) [%] | % protection of the MT-4 cells in MNC (Table 3, MT-4 cells infected with HIV-1, MTT assay, at MNC) [%] | SI = CC50/IC50
1 | O=c1oc2cc(O)cc(O)c2c(O)c1-c1coc2c1c(=O)oc1cc(O)cc(O)c12 [Compound 1, 7,9-dihydroxy-3-(4,5,7-trihydroxy-2-oxo-2H-chromene-3-yl)-4H-furo[3,2-c]chromen-4-one] | 10 | 0 | 50 | 55 | 60 | 75 | 92 | 100 | 1000 · 10^3
2 | O=c1oc2cc(O)c(O)cc2c(O)c1-c1coc2c1c(=O)oc1cc(O)c(O)cc12 [Compound 2, 7,8-dihydroxy-3-(4,6,7-trihydroxy-2-oxo-2H-chromen-3-yl)-4H-furo[3,2-c]chromen-4-one, reference compound] | 5000 | 0 | 0 | 0 | 25 | 50 | 55 | – | 2 · 10^3

Source: patent US10266545B2, “Coumarin derivative as antiviral agent, pharmaceutical composition thereof, its preparation and use” (I-NOVA MEDICINSKA ISTRAZIVANJA D.O.O., priority 2016, dated 2019)
